System: Energy system protein genes
Test: DNA chip mRNA expression in yeast, energy system protein genes (Table 4)
Format: cell-based, Saccharomyces cerevisiae S288C
In short: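 Values are treated/untreated fluorescence ratios from a whole-genome yeast DNA chip hybridized over 12 hours at 65° C with Cy3- or Cy5-labelled cDNA from poly(A) mRNA. Log-phase S288C yeast in YPD at 25° C had received a single toxic chemical for two hours, dosed to slow growth without killing.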

## C[S+](C)[O-] [(15), dimethylsulfoxide]
Yeast gene YJL052W
  The level of expressed mRNA in the presence of chemical substance/The level of expressed mRNA in the absence of chemical substance: 2.3
Yeast gene YJL166W, cells incubated two hours with the chemical substance
  The level of expressed mRNA in the presence of chemical substance/The level of expressed mRNA in the absence of chemical substance: 0.5
Yeast gene YJR009C
  The level of expressed mRNA in the presence of chemical substance/The level of expressed mRNA in the absence of chemical substance: 2.1
Yeast gene YJR048W
  The level of expressed mRNA in the presence of chemical substance/The level of expressed mRNA in the absence of chemical substance: 0.6
Yeast gene YJR155W
  The level of expressed mRNA in the presence of chemical substance/The level of expressed mRNA in the absence of chemical substance: 2.6
Yeast gene YKL016C, cells incubated two hours with the chemical substance
  The level of expressed mRNA in the presence of chemical substance/The level of expressed mRNA in the absence of chemical substance: 0.7
Yeast gene YKL035W
  The level of expressed mRNA in the presence of chemical substance/The level of expressed mRNA in the absence of chemical substance: 1.0
Yeast gene YKL060C, cells incubated two hours with the chemical substance
  The level of expressed mRNA in the presence of chemical substance/The level of expressed mRNA in the absence of chemical substance: 1.6
Yeast gene YKL085W, cells incubated two hours with the chemical substance
  The level of expressed mRNA in the presence of chemical substance/The level of expressed mRNA in the absence of chemical substance: 0.5
Yeast gene YKL150W
  The level of expressed mRNA in the presence of chemical substance/The level of expressed mRNA in the absence of chemical substance: 0.9
Yeast gene YKL152C
  The level of expressed mRNA in the presence of chemical substance/The level of expressed mRNA in the absence of chemical substance: 1.8
Yeast gene YKR058W, cells incubated two hours with the chemical substance, 25° C., YPD medium
  The level of expressed mRNA in the presence of chemical substance/The level of expressed mRNA in the absence of chemical substance: 0.5
Yeast gene YKR097W
  The level of expressed mRNA in the presence of chemical substance/The level of expressed mRNA in the absence of chemical substance: 2.5
Yeast gene YLL041C, cells incubated two hours with the chemical substance
  The level of expressed mRNA in the presence of chemical substance/The level of expressed mRNA in the absence of chemical substance: 0.4
Yeast gene YLR038C, cells incubated two hours with the chemical substance
  The level of expressed mRNA in the presence of chemical substance/The level of expressed mRNA in the absence of chemical substance: 0.7
Yeast gene YLR164W, cells incubated two hours with the chemical substance
  The level of expressed mRNA in the presence of chemical substance/The level of expressed mRNA in the absence of chemical substance: 0.7
Yeast gene YLR174W, cells incubated two hours with the chemical substance
  The level of expressed mRNA in the presence of chemical substance/The level of expressed mRNA in the absence of chemical substance: 0.8
Yeast gene YLR273C
  The level of expressed mRNA in the presence of chemical substance/The level of expressed mRNA in the absence of chemical substance: 2.6
Yeast gene YLR295C, cells incubated two hours with the chemical substance, 25° C., YPD medium
  The level of expressed mRNA in the presence of chemical substance/The level of expressed mRNA in the absence of chemical substance: 0.5
Yeast gene YLR304C, cells incubated two hours with the chemical substance
  The level of expressed mRNA in the presence of chemical substance/The level of expressed mRNA in the absence of chemical substance: 1.6
Yeast gene YLR345W
  The level of expressed mRNA in the presence of chemical substance/The level of expressed mRNA in the absence of chemical substance: 1.0
Yeast gene YLR377C, cells incubated two hours with the chemical substance
  The level of expressed mRNA in the presence of chemical substance/The level of expressed mRNA in the absence of chemical substance: 0.8
Yeast gene YLR395C, cells incubated two hours with the chemical substance
  The level of expressed mRNA in the presence of chemical substance/The level of expressed mRNA in the absence of chemical substance: 0.4
Yeast gene YML054C
  The level of expressed mRNA in the presence of chemical substance/The level of expressed mRNA in the absence of chemical substance: 1.1
Yeast gene YML087C
  The level of expressed mRNA in the presence of chemical substance/The level of expressed mRNA in the absence of chemical substance: 0.3
Yeast gene YML100W
  The level of expressed mRNA in the presence of chemical substance/The level of expressed mRNA in the absence of chemical substance: 1.8
Yeast gene YML120C, cells incubated two hours with the chemical substance
  The level of expressed mRNA in the presence of chemical substance/The level of expressed mRNA in the absence of chemical substance: 0.5
Yeast gene YML125C
  The level of expressed mRNA in the presence of chemical substance/The level of expressed mRNA in the absence of chemical substance: 1.9
Yeast gene YMR089C
  The level of expressed mRNA in the presence of chemical substance/The level of expressed mRNA in the absence of chemical substance: 1.8
Yeast gene YMR105C
  The level of expressed mRNA in the presence of chemical substance/The level of expressed mRNA in the absence of chemical substance: 0.9
Yeast gene YMR118C
  The level of expressed mRNA in the presence of chemical substance/The level of expressed mRNA in the absence of chemical substance: 0.9
Yeast gene YMR261C, cells incubated two hours with the chemical substance
  The level of expressed mRNA in the presence of chemical substance/The level of expressed mRNA in the absence of chemical substance: 0.8
Yeast gene YNL037C
  The level of expressed mRNA in the presence of chemical substance/The level of expressed mRNA in the absence of chemical substance: 0.9
Yeast gene YNL071W
  The level of expressed mRNA in the presence of chemical substance/The level of expressed mRNA in the absence of chemical substance: 1.1
Yeast gene YNL237W
  The level of expressed mRNA in the presence of chemical substance/The level of expressed mRNA in the absence of chemical substance: 1.6
Yeast gene YNL331C
  The level of expressed mRNA in the presence of chemical substance/The level of expressed mRNA in the absence of chemical substance: 2.3
Yeast gene YOL086C, cells incubated two hours with the chemical substance
  The level of expressed mRNA in the presence of chemical substance/The level of expressed mRNA in the absence of chemical substance: 1.6
Yeast gene YOL126C
  The level of expressed mRNA in the presence of chemical substance/The level of expressed mRNA in the absence of chemical substance: 1.4
Yeast gene YOL157C
  The level of expressed mRNA in the presence of chemical substance/The level of expressed mRNA in the absence of chemical substance: 1.1
Yeast gene YOL165C
  The level of expressed mRNA in the presence of chemical substance/The level of expressed mRNA in the absence of chemical substance: 3.0
Yeast gene YOR136W
  The level of expressed mRNA in the presence of chemical substance/The level of expressed mRNA in the absence of chemical substance: 1.2
Yeast gene YOR221C
  The level of expressed mRNA in the presence of chemical substance/The level of expressed mRNA in the absence of chemical substance: 1.0
Yeast gene YOR347C
  The level of expressed mRNA in the presence of chemical substance/The level of expressed mRNA in the absence of chemical substance: 2.0
Yeast gene YPL031C, cells incubated two hours with the chemical substance
  The level of expressed mRNA in the presence of chemical substance/The level of expressed mRNA in the absence of chemical substance: 0.7
Yeast gene YPL088W
  The level of expressed mRNA in the presence of chemical substance/The level of expressed mRNA in the absence of chemical substance: 3.2
Yeast gene YPL171C
  The level of expressed mRNA in the presence of chemical substance/The level of expressed mRNA in the absence of chemical substance: 1.4
Yeast gene YPL240C
  The level of expressed mRNA in the presence of chemical substance/The level of expressed mRNA in the absence of chemical substance: 1.2
Yeast gene YPL271W
  The level of expressed mRNA in the presence of chemical substance/The level of expressed mRNA in the absence of chemical substance: 0.8
Yeast gene YPR006C
  The level of expressed mRNA in the presence of chemical substance/The level of expressed mRNA in the absence of chemical substance: 0.7
Yeast gene YPR026W
  The level of expressed mRNA in the presence of chemical substance/The level of expressed mRNA in the absence of chemical substance: 3.1

— US8192962B2, “Processes for detecting toxic substances” (Daikin Industries, Ltd., priority 2001, dated 2012)
